# Results: ChEMBL document CHEMBL1156642, “Discovery of betamethasone 17alpha-carbamates as dissociated glucocorticoid receptor modulators in the rat” (Bioorg Med Chem, 2008)
# Biological target: T1, Glucocorticoid receptor (Homo sapiens, UniProt P04150)
# T1 sequence (P04150 whole entry): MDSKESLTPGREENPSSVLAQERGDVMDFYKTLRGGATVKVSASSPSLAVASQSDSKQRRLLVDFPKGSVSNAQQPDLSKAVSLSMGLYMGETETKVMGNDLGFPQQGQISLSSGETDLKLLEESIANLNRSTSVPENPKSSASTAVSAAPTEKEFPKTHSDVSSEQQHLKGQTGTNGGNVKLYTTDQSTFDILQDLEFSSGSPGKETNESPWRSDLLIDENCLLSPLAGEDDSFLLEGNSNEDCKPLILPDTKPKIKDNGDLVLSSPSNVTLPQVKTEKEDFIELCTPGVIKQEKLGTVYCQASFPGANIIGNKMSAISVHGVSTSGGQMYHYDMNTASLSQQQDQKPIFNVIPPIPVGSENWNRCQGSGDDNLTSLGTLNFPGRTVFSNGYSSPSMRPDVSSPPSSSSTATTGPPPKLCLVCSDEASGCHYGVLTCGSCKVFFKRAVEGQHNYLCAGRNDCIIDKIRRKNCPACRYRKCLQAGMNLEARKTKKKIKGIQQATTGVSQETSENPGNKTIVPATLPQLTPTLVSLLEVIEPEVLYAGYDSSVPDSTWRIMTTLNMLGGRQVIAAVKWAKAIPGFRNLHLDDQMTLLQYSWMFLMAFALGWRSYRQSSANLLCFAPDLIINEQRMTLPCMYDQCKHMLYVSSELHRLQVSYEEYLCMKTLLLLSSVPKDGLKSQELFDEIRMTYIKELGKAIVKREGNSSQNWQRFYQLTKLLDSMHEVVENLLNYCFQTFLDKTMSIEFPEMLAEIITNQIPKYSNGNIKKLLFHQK
# Description: Inhibition of human glucocorticoid receptor
row,SMILES,IC50 [nM]
1,CCC(C)(C)NC(=O)O[C@]1(C(=O)CO)[C@@H](C)C[C@H]2[C@@H]3CCC4=CC(=O)C=C[C@]4(C)[C@@]3(F)[C@@H](O)C[C@@]21C,55.1
2,C=CCNC(=O)O[C@]1(C(=O)CO)[C@@H](C)C[C@H]2[C@@H]3CCC4=CC(=O)C=C[C@]4(C)[C@@]3(F)[C@@H](O)C[C@@]21C,17.4

# Biological target: T2, Progesterone receptor (Homo sapiens, UniProt P06401)
# T2 sequence (P06401 whole entry): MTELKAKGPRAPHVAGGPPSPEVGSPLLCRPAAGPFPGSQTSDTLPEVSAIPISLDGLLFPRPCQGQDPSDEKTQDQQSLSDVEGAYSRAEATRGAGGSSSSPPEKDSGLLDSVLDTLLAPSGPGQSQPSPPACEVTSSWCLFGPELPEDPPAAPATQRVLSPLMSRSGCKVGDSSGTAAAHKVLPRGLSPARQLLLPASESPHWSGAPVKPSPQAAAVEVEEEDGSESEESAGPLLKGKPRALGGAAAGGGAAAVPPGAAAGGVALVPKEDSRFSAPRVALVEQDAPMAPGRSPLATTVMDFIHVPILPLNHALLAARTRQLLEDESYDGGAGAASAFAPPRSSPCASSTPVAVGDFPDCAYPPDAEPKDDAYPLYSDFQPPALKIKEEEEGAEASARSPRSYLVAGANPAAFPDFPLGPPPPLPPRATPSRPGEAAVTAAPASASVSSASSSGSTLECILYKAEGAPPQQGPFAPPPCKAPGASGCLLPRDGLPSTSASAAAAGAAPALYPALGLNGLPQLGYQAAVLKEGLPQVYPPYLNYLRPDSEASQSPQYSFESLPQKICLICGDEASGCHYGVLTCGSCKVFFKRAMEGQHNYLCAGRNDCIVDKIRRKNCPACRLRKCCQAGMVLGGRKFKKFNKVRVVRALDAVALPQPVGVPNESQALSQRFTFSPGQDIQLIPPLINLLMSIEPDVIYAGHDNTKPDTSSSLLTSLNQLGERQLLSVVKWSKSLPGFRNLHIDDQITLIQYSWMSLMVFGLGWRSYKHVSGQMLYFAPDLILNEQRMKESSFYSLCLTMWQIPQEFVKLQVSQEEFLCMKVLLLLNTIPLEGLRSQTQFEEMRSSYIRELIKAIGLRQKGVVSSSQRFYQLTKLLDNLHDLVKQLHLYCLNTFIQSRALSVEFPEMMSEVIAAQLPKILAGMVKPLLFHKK
# Assay: Inhibition of human progesterone receptor
row,SMILES,IC50 [nM]
1,C=CCNC(=O)O[C@]1(C(=O)CO)[C@@H](C)C[C@H]2[C@@H]3CCC4=CC(=O)C=C[C@]4(C)[C@@]3(F)[C@@H](O)C[C@@]21C,> 1000

# Biological target: T3, Interstitial collagenase (Homo sapiens) (UniProt P03956)
# T3 sequence (whole entry): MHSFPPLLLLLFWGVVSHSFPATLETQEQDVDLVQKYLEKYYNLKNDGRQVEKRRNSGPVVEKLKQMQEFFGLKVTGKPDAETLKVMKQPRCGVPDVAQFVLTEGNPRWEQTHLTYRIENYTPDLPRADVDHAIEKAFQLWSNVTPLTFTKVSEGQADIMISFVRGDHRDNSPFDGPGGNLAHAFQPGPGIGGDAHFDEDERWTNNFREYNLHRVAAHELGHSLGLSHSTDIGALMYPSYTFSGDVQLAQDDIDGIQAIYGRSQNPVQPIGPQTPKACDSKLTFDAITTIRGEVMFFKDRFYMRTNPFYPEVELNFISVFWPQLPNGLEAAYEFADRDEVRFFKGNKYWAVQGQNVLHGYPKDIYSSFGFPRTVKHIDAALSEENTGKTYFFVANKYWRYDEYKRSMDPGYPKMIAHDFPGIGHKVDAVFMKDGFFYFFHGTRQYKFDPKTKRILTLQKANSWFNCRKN
# Assay: Inhibition of glucocorticoid-mediated human MMP1 expression in PMA stimulated A549 cells assessed as MMP1 protein level by ELISA relative to Dexamethasone
# Assay type: cell-based
# Set-up: scale not given: the % may be the effect or the level left
row,SMILES,Activity [%]
1,CCC(C)(C)NC(=O)O[C@]1(C(=O)CO)[C@@H](C)C[C@H]2[C@@H]3CCC4=CC(=O)C=C[C@]4(C)[C@@]3(F)[C@@H](O)C[C@@]21C,65.9
2,C=CCNC(=O)O[C@]1(C(=O)CO)[C@@H](C)C[C@H]2[C@@H]3CCC4=CC(=O)C=C[C@]4(C)[C@@]3(F)[C@@H](O)C[C@@]21C,106

# Organism: Rattus norvegicus
# Assay: Transactivation activity of glutamine synthase in rat skeletal muscle cells relative to Dexamethasone
# Assay type: cell-based
row,SMILES,Activity [%]
1,CCC(C)(C)NC(=O)O[C@]1(C(=O)CO)[C@@H](C)C[C@H]2[C@@H]3CCC4=CC(=O)C=C[C@]4(C)[C@@]3(F)[C@@H](O)C[C@@]21C,35
2,C=CCNC(=O)O[C@]1(C(=O)CO)[C@@H](C)C[C@H]2[C@@H]3CCC4=CC(=O)C=C[C@]4(C)[C@@]3(F)[C@@H](O)C[C@@]21C,16
